Test results as given in article PMC3863468 (BioMed Research International, 2013).

Tests used:
in vivo = conditions: for AUC(0–t) / AUC(0–∞) / C max / CLz/F / MRT(0–t) / MRT(0–∞) / T max / Vz/F / t (1/2)z: then single oral 30 mg/kg imatinib, rat serum, n = 5
Description: HPLC system (Agilent 1100) was equipped with quaternary pump, on-line vacuum degasser, autosampler, column compartment, diode array detector, and Agilent Chem Station Rev A.10.02. […] The detection wavelength was 282 nm, and the injection volume was 20.0 μL.
The serum samples were prepared using liquid-liquid extraction technique. A 300 μL aliquot of the serum sample was taken in a 10 mL glass test tube, and on that 20 μL of IS (100 μg/mL) was spiked and 150 μL of sodium hydroxide solution (0.01 moL/L) was added. After vortex mixing for 30 s, 3 mL of ethyl acetate was added, and the mixture was vortexed for 1 min and then centrifuged at 3000 ×g for 5 min. The organic layer was transferred into another 5 mL tube and evaporated to dryness under a stream of nitrogen gas at 40°C. The residue was reconstituted in 100 μL of mobile phase and vortex-mixed for 1 min, and 20 μL of aliquot was injected into the HPLC system for analysis.
Experimental values were expressed as x-±s . Statistical analyses of main pharmacokinetic parameters were performed by Student's unpaired test using SPSS 16.0 software. A value of P < 0.05 was considered to be significant between two groups.

[1] = cited from earlier work
[2] = group B: apigenin 165 mg/kg for 15 days
[3] = group C: single dose apigenin 165 mg/kg
[4] = group D (single dose apigenin 252 mg/kg) vs group B, rats, 30 mg/kg imatinib
[5] = group D: single dose apigenin 252 mg/kg
[6] = short-term 165 mg/kg apigenin (group C), printed comparison with group B, rats, 30 mg/kg imatinib

Compound: Cc1ccc(NC(=O)c2ccc(CN3CCN(C)CC3)cc2)cc1Nc1nccc(-c2cccnc2)n1 [imatinib, reference compound]
- V z/F decreased (printed: in group B) (in vivo; male, Sprague-Dawley, rat, in vivo, 30 mg/kg): 55.1%
- AUC(0-t) (in vivo; male, Sprague-Dawley, rat, in vivo, po, 30 mg/kg, AUC(0–t)): 90600 ± 11300 ng·h/mL
- AUC(0-inf) (in vivo; male, Sprague-Dawley, rat, in vivo, po, 30 mg/kg, AUC(0–∞)): 91000 ± 11600 ng·h/mL
- Cmax (in vivo; male, Sprague-Dawley, rat, in vivo, po, 30 mg/kg, C max): 12100 ± 2020 ng/mL
- Tmax (in vivo; male, Sprague-Dawley, rat, in vivo, po, 30 mg/kg, T max): 3 ± 1 h
- oral bioavailability [1]: ~97%

Compound: Cc1ccc(NC(=O)c2ccc(CN3CCNCC3)cc2)cc1Nc1nccc(-c2cccnc2)n1 [N-desmethyl imatinib]
- AUC(0–t) (in vivo; group A: control (0.5% CMC-Na)): 5977 ± 1626 ng·h/mL
- AUC(0–∞) (in vivo; group A: control (0.5% CMC-Na)): 6827 ± 2595 ng·h/mL
- C max (in vivo; group A: control (0.5% CMC-Na)): 678 ± 147 ng/mL
- CLz/F (in vivo; group A: control (0.5% CMC-Na)): 81.9 ± 29.7 mL/min/kg
- MRT(0–t) (in vivo; group A: control (0.5% CMC-Na)): 7.085 ± 1.135 h
- MRT(0–∞) (in vivo; group A: control (0.5% CMC-Na)): 9.718 ± 4.636 h
- T max (in vivo; group A: control (0.5% CMC-Na)): 3.6 ± 0.894 h
- Vz/F (in vivo; group A: control (0.5% CMC-Na)): 32.8 ± 10.3 L/kg
- t (1/2)z (in vivo; group A: control (0.5% CMC-Na)): 5.495 ± 3.92 h
- main pharmacokinetic parameters, difference between group A and group B (in vivo; group B (apigenin 165 mg/kg for 15 days) vs group A (control), rats): no great differences
- AUC(0–t) (in vivo; [2]): 6335 ± 1105 ng·h/mL
- AUC(0–∞) (in vivo; [2]): 6672 ± 797 ng·h/mL
- C max (in vivo; [2]): 797 ± 73 ng/mL
- CLz/F (in vivo; [2]): 75.9 ± 9.87 mL/min/kg
- MRT(0–t) (in vivo; [2]): 6.573 ± 0.544 h
- MRT(0–∞) (in vivo; [2]): 7.504 ± 0.189 h
- T max (in vivo; [2]): 4.0 ± 0.003 h
- Vz/F (in vivo; [2]): 26.8 ± 4.49 L/kg
- t (1/2)z (in vivo; [2]): 4.083 ± 0.436 h
- AUC(0–t) (in vivo; [3]): 4797 ± 602 ng·h/mL
- AUC(0–∞) (in vivo; [3]): 5050 ± 797 ng·h/mL
- C max (in vivo; [3]): 547 ± 91 ng/mL
- CLz/F (in vivo; [3]): 101 ± 16.5 mL/min/kg
- MRT(0–t) (in vivo; [3]): 7.227 ± 0.525 h
- MRT(0–∞) (in vivo; [3]): 8.397 ± 1.545 h
- T max (in vivo; [3]): 4.0 ± 0.005 h
- Vz/F (in vivo; [3]): 40.7 ± 12.8 L/kg
- t (1/2)z (in vivo; [3]): 4.906 ± 2.093 h
- C max reduced compared with group B (in vivo; [4]): 19.82%
- V z/F decrease compared with group B (in vivo; [4]): 62.10%
- AUC(0–t) (in vivo; [5]): 5262 ± 890 ng·h/mL
- AUC(0–∞) (in vivo; [5]): 5545 ± 814 ng·h/mL
- C max (in vivo; [5]): 639 ± 130 ng/mL
- CLz/F (in vivo; [5]): 91.8 ± 13.9 mL/min/kg
- MRT(0–t) (in vivo; [5]): 7.326 ± 0.53 h
- MRT(0–∞) (in vivo; [5]): 8.679 ± 1.301 h
- T max (in vivo; [5]): 3.8 ± 0.447 h
- Vz/F (in vivo; [5]): 43.5 ± 16.1 L/kg
- t (1/2)z (in vivo; [5]): 5.376 ± 1.495 h
- AUC(0−t) increased in comparison with group B (in vivo; [6]): 19.7%
- C max increased in comparison with group B (in vivo; [6]): 19.3%

Compound: O=c1cc(-c2ccc(O)cc2)oc2cc(O)cc(O)c12 [apigenin, reference compound]
- dose dependence of effect on imatinib (in vivo; 252 mg/kg vs 165 mg/kg short-time apigenin, rats): not dose dependent
- effect on the metabolism of imatinib in vivo (in vivo; long-term oral administration of apigenin (165 mg/kg for 15 days), rats): accelerated
- effect on the metabolism of imatinib in vivo (in vivo; single dose of apigenin, rats): inhibited
